Assay results reported in US12084399B2, “Crystalline tranilast salts and their pharmaceutical use” (NUFORMIX TECHNOLOGIES LIMITED, priority 2018, dated 2024).
Values after ≈ are worked out from the molar mass of the structure shown. Structures can show the parent of a compound that is named as a salt. Where two headings read alike, the source gives them in different places.

Key:
[1] = Solid-state accelerated stability, 40° C. and 75% relative humidity, 7 days, XRPD; type: physicochemical
Description: A study was carried out to examine the physical stability of the crystalline 1:1 tranilast N-methylglucamine salt polymorphs with respect to solid form conversion over time under accelerated conditions. […] After this time each sample was analysed by XRPD to observe any potential form changes.
A study was carried out to examine the physical stability of the 1:1 crystalline tranilast salts with respect to solid form conversion or deliquescence over time under accelerated conditions. […] Each sample was analysed by XRPD to observe any potential form changes.

[2] = pKa values and ΔpKa of tranilast and the salt formers
Description: When two solid components are successfully crystallised together to form a two-component molecular complex with a new unique solid-state crystalline structure this could result in either a salt or a cocrystal. Whether a salt or a cocrystal is formed is dependent on whether a proton transfer takes place between the two different components of the complex. If a proton is transferred from one component to the other resulting in ionic bonding then a crystalline salt results. If no proton transfer occurs and the components remain in their neutral state, held together only by hydrogen bonds, Van der Waals bonds etc, then a cocrystal is formed. Whether or not proton transfer takes place is governed by the difference in pKa values for the acidic and basic functional groups of each component.

[3] = Solution photostability study (UV irradiation, HPLC); conditions: 2 mg dissolved in water (1 ml)
Description: (§2) A 2 mg sample of the four salt forms under investigation were each weighed into a clear glass vial. Each sample was dissolved in water (1 ml).

[4] = Solid-state photostability study (UV irradiation, HPLC); conditions: for solid-state photostability (in words): UV irradiation up to 24 hours
Description: A 6-10 mg sample of each of the tranilast forms under investigation was spread over the bottom surface of a clear glass vial.

[5] = cited from earlier work
[6] = Dissolution study in simulated intestinal fluid (FaSSIF V2); type: physicochemical; conditions: 50 ml FaSSIF V2, pH 6.5, 37° C.
Description: For BCS class II drugs, such as tranilast, the rate of dissolution of the drug form used in the gastrointestinal media can be the controlling factor in the overall absorption and thus the bioavailability of an oral drug. This becomes even more influential as the dose of a drug increases. For conditions such as fibrosis or cancer where a higher dose of tranilast may be needed for successful treatment, finding a form of tranilast that has a high dissolution rate is important. […] Pat. […] The dissolution study was carried out using the Pion inForm® instrument. Detection and quantification of tranilast was performed by in-situ UV-spectroscopy using a fibre-optic probe, allowing instantaneous data collection from the point of sample introduction.

[7] = Gravimetric vapour sorption (GVS) analysis; type: physicochemical; conditions: for moisture reversibly absorbed (GVS): across the 90% humidity range at 25° C.
Description: The moisture sorption isotherm graph obtained for the crystalline 1:1 tranilast N-methylglucamine Form I salt is shown in FIG. 5.
The moisture sorption isotherm graph obtained for the crystalline 1:1 tranilast N-methylglucamine Form II salt is shown in FIG. 10.

[8] = for Solubility (mg/ml) in terms of the mass of tranilast dissolved: water pH7.0, 25° C., 24 hours
[9] = cited from earlier work; remark: listed apart in the source
[10] = buffer, 2 mg/ml
Description: as §2

[11] = cited from earlier work; remark: listed apart in the source
[12] = Dissolution study in 5% aqueous dextrose solution; type: physicochemical; conditions: saline or isotonic, thermodynamic from solid, 50 ml 5% aqueous dextrose solution
Description: As this invention also relates to a method of preparing a liquid pharmaceutical formulation of tranilast for delivery, for example, as an injectable formulation, a liquid oral formulation or a nebulised inhaled formulation a study was also carried out to explore the dissolution rates of the crystalline tranilast salts of this invention in a suitable media. As liquid pharmaceutical formulations are usually made up in-situ at the bedside for immediate delivery it is important that these new solid forms of tranilast dissolve almost instantaneously for them to be suitable for use in a liquid pharmaceutical formulation. Whilst liquid oral formulations could be achieved by simply dissolving a drug in water prior to administration (the high aqueous solubility of the new crystalline tranilast salts would make this possible), a liquid formulation for inhaled or intravenous delivery requires the dissolution media to be isotonic. This is often achieved by using saline (0.9% sodium chloride in water) as the liquid formulation media. […] An alternative isotonic media suitable for preparing liquid pharmaceutical formulations for inhaled or intravenous administration is 5% aqueous dextrose solution. […] The results of this study can be seen in FIG. 41.

[13] = 600 mg daily dosage, inter-patient variation; cited from earlier work
[14] = exposed to light, listed as pure crystalline tranilast; cited from earlier work
[15] = dissolved or stored in solution, UV exposure; cited from earlier work
[16] = Solid-state stability under high storage temperature, 90° C., 7 days, XRPD; type: physicochemical; conditions: oven at 90° C.
Description: (§1) A third study was carried out to explore the solid-state stability of the crystalline 1:1 tranilast N-methylglucamine salt polymorphs under high storage temperatures. Forms I and II of 1:1 tranilast N-methylglucamine salt (50 mg) were stored in an oven at 90° C. for 7 days. After this time each sample was analysed by XRPD to observe any potential form changes.

[17] = Solid-state stability under high humidity, 25° C. and 100% relative humidity, 7 days, XRPD; type: physicochemical; conditions: sealed container
Description: as §1, with “second” for “third”, “humidity.” for “storage temperatures.”, “were separately placed in a sealed container at 25° C. and 100% relative humidity and” for “were”, “under these conditions” for “in an oven at 90° C.”

[18] = sealed container, 40° C. and 75% relative humidity, 7 days

For `COc1ccc(/C=C/C(=O)Nc2ccccc2C(=O)O)cc1OC.NCCO` [Tranilast Salt Ethanolamine, Crystalline Tranilast Ethanolamine Salt], the deliquescence [1, 18] was “no signs of deliquescence” and the “solid form conversion (XRPD)” value [1, 18] was “retained their original crystalline form”.
For `COc1ccc(/C=C/C(=O)Nc2ccccc2C(=O)[O-])cc1OC.O.[K+]` [Tranilast Salt Potassium Monohydrate, Crystalline 1:1 Tranilast Potassium Monohydrate Salt], the deliquescence [1, 18] was “no signs of deliquescence” and the “solid form conversion (XRPD)” value [1, 18] was “retained their original crystalline form”.
With `CNC[C@H](O)[C@@H](O)[C@H](O)[C@H](O)CO` [N-methylglucamine] the ΔpKa ([2]; pKa (protonated base) - pKa (acid), salt former versus tranilast) was 6.27.
In the case of `CCNCC` [Diethylamine], the “% tranilast remaining after UV exposure” value ([3]; 2 hrs) is reported as 92.06%, the “% tranilast remaining after UV exposure” value ([3]; 6 hrs) is reported as 52.30% and the “% tranilast remaining after UV exposure” value ([3]; 24 hrs) is reported as 20.72%. The “% tranilast remaining after UV exposure” value ([4]; solid state, 2 hrs) was 99.57%, the “% tranilast remaining after UV exposure” value ([4]; solid state, 6 hrs) was 99.61% and the “% tranilast remaining after UV exposure” value ([4]; solid state, 24 hrs) was 99.63%.
For `COc1ccc(/C=C/C(=O)Nc2ccccc2C(=O)O)cc1OC.NCCCC[C@H](N)C(=O)O` [Tranilast Salt L-Lysine, Crystalline 1:1 Tranilast L-Lysine Salt], the “solid-state photostability (in words)” value ([4]; solid state) was “photostable”, the deliquescence [1] was “no signs of deliquescence” and the “solid form conversion (XRPD)” value [1] was “retained their original crystalline form”.
In the case of `COc1ccc(/C=C/C(=O)Nc2ccccc2C(=O)O)cc1OC` [crystalline 1:1 tranilast sodium salt], the “apparent solubility relative to pure crystalline tranilast (in words)” value [5] is listed as “lower apparent solubility than pure tranilast”, the “apparent solubility relative to pure crystalline tranilast (in words)” value ([5]; listed as crystalline tranilast sodium salt) is listed as “even less than that of pure tranilast” and the solubility at 20 minutes ([6]; simulated intestinal fluid (FaSSIF V2), thermodynamic from solid, 20 minutes) is listed as 300 µg/mL.
For `CCNC[C@H](O)[C@@H](O)[C@H](O)[C@H](O)CO.COc1ccc(/C=C/C(=O)Nc2ccccc2C(=O)O)cc1OC` [Tranilast Salt N-ethylglucamine, Crystalline 1:1 Tranilast N-Ethylglucamine Salt], the deliquescence [1, 18] was “no signs of deliquescence” and the “solid form conversion (XRPD)” value [1, 18] was “retained their original crystalline form”.
For `CNC[C@H](O)[C@@H](O)[C@H](O)[C@H](O)CO.COc1ccc(/C=C/C(=O)Nc2ccccc2C(=O)O)cc1OC` [Tranilast Salt N-methylglucamine Form II, Crystalline 1:1 Tranilast N-methylglucamine Form II Salt], the “moisture reversibly absorbed (GVS)” value ([7]; listed as crystalline 1:1 tranilast N-methylglucamine form II salt) was 0.42 % w/w.
In the case of `CNC[C@H](O)[C@@H](O)[C@H](O)[C@H](O)CO` [N-methylglucamine Form II], the “% tranilast remaining after UV exposure” value ([4]; 2 h) is reported as 99.50%, the “% tranilast remaining after UV exposure” value ([4]; 6 h) is reported as 99.58% and the “% tranilast remaining after UV exposure” value ([4]; 24 h) is reported as 99.51%.
In the case of `CCNCC.COc1ccc(/C=C/C(=O)Nc2ccccc2C(=O)O)cc1OC` [Tranilast Salt Diethylamine, Crystalline 1:1 Tranilast Diethylamine Salt], the “solid-state photostability (in words)” value ([4]; solid state) is reported as “photostable”, the “Solubility (mg/ml) in terms of the mass of tranilast dissolved” value [8] is reported as 18 to 20 mg/mL and the deliquescence [1, 18] is reported as “no signs of deliquescence”. The “solid form conversion (XRPD)” value [1, 18] was “retained their original crystalline form”.
For `COc1ccc(/C=C/C(=O)Nc2ccccc2C(=O)O)cc1OC.NC(=O)c1cccnc1` [1:1 tranilast nicotinamide cocrystal], the “solubility reached after 30 seconds” value ([6]; 30 seconds) was 2700 µg/mL, the “solubility after 5 minutes” value ([6]; 5 minutes) was 1950 µg/mL and the “solubility after 20 minutes” value ([6]; 20 minutes) was 1700 µg/mL.
In the case of `CCNC[C@H](O)[C@@H](O)[C@H](O)[C@H](O)CO` [N-ethylglucamine], the pKa ([9]; protonated basic functional group of the salt former) is given as 9.52, the “% tranilast remaining after UV exposure” value ([4]; 2 h) is given as 99.55% and the “% tranilast remaining after UV exposure” value ([4]; 6 h) is given as 99.61%. The “% tranilast remaining after UV exposure” value ([4]; 24 h) was 99.47%, the ΔpKa [2] was 6.27 and the “% tranilast remaining after UV exposure” value ([10]; 2 h) was 84.13%. For the same molecule, the “% tranilast remaining after UV exposure” value ([10]; 6 h) was 58.20% and the “% tranilast remaining after UV exposure” value ([10]; 24 h) was 35.90%.
For `COc1ccc(/C=C/C(=O)Nc2ccccc2C(=O)O)cc1OC.OCCNCCO` [Tranilast Salt Diethanolamine, Crystalline Tranilast Diethanolamine Salt], the deliquescence [1, 18] was “no signs of deliquescence” and the “solid form conversion (XRPD)” value [1, 18] was “retained their original crystalline form”.
With `NCCCC[C@H](N)C(=O)O` [L-Lysine] the “% tranilast remaining after UV exposure” value ([3]; 2 hrs) was 92.53%, the “% tranilast remaining after UV exposure” value ([3]; 6 hrs) was 55.98% and the “% tranilast remaining after UV exposure” value ([3]; 24 hrs) was 21.03%. The “% tranilast remaining after UV exposure” value ([4]; solid state, 2 hrs) was 99.35%, the “% tranilast remaining after UV exposure” value ([4]; solid state, 6 hrs) was 99.53% and the “% tranilast remaining after UV exposure” value ([4]; solid state, 24 hrs) was 99.54%. For the same molecule, the “Solubility (mg/ml) in terms of the mass of tranilast dissolved” value [8] was 277 to 283 mg/mL.
For `COc1ccc(/C=C/C(=O)Nc2ccccc2C(=O)O)cc1OC` [Tranilast, 2-[[3-(3,4-dimethoxyphenyl)-1-oxo-2-propenyl]amino] benzoic acid], the “solubility in pH 1.2 buffer solution” value ([11]; pH 1.2 buffer solution) is listed as 0.7 μg/ml, the solubility in water ([11]; water) is listed as 14.5 µg/mL (≈ 44.3 µM) and the “Solubility” value ([11]; water, comparative literature value in Table 16) is listed as 14.5 µg/mL (≈ 44.3 µM). The pKa ([9]; carboxylic acid group of tranilast) was 3.25, the solubility at 1 minute ([12]; 1 minute) was 1 µg/mL (≈ 3.05 µM) and the solubility at 1 hour ([12]; 1 hour) was 60 µg/mL (≈ 183 µM). For the same molecule, the “plasma concentrations of the drug” value [13] was 30 to 300 µM, the “solid-state photostability (in words)” value [14] was “photostable” and the “photochemical stability in solution (in words)” value [15] was “photochemically unstable”.
In the case of `CNC[C@H](O)[C@@H](O)[C@H](O)[C@H](O)CO.COc1ccc(/C=C/C(=O)Nc2ccccc2C(=O)O)cc1OC` [Tranilast Salt N-methylglucamine Form I, Crystalline 1:1 Tranilast N-methylglucamine Form I Salt], the “aqueous solubility (mass of salt)” value ([8]; pH 7) is reported as “greater than 1000 mg/ml”, the “form conversion in GVS (XRPD)” value ([7]; XRPD of the sample at 0% RH and 90% RH) is reported as “did not demonstrate any form conversion” and the “moisture reversibly absorbed (GVS)” value ([7]; listed as crystalline 1:1 tranilast N-methylglucamine Form I salt) is reported as 1.4 % w/w. The “solid form conversion (XRPD)” value [16] was “retained their original crystalline form”, the “solid form conversion (XRPD)” value [1, 18] was “retained their original crystalline form” and the “solid form conversion (XRPD)” value [17] was “retained their original crystalline form”.
Molecule `NCCCC[C@H](N)C(=O)O` [Lysine] has a ΔpKa [2] of 5.70.
